Measurements published in EP0565593B1, “REDUCING PESTICIDAL INTERACTIONS IN CROPS” (priority 1990, dated 1992).
Where “and” joins values, the source holds several entries; their conditions need not be identical. Equal entries are not always repeated.

Assays:
Corn = assay: Greenhouse test Procedure II: herbicide, insecticide and antidote incorporated in cover layer (Example 4; Table 4); format: in vivo; conditions: 3 weeks
Protocol: Containers were filled and compacted with a fumigated silt loam top soil to a depth of about 1.3 cm from the top of the container. A first container was designated as an untreated control, a second container was designated as a herbicide control, and a third container was designated as a herbicide + antidote test container. Each of the containers was seeded with a crop species. A measured amount of herbicide dispersed or dissolved in acetone was applied to a measured quantity of soil. To this same quantity of soil treated with herbicide, there was added a measured amount of antidote dispersed or dissolved in acetone. The quantity of soil treated with the herbicide and antidote was thoroughly mixed to incorporate the herbicide and antidote in the soil uniformly. The seed bed in the third container of soil was covered with the soil treated with the herbicide and antidote and the container was leveled. For each test series, the seed beds of the first and second containers were likewise covered by soil layers. the cover layer of the first container was not treated with herbicide or antidote.
This procedure is the same as Procedure I, but modified in the manner that after incorporation of the chemicals (herbicide, antidote and insecticide), the containers with the covered seedbed were treated with an initial overhead irrigation equivalent to 0.6 cm rainfall, then subsequently sub-irrigated as required on greenhouse benches.
The procedure used in this test was Procedure No. 2 above. Formulations of herbicide, insecticide and antidote were applied via track sprayer sequentially onto cover layers, incorporated into the soil which was spread over seedbeds, then irrigated from above with 0.6 cm water. Observations were made three (3) weeks after treatment.

[1] = test system: velvetleaf (Abutilon theophrasti); assay: Greenhouse test, combination of Procedures II and III (Examples 1, 2; Tables 1, 2); format: in vivo; conditions: for Percent Injury VELE: 7 weeks; for % Injury VELE: 3 weeks

In the case of CC1(C)OC(c2ccco2)CN1C(=O)C(Cl)Cl (stereo not drawn) [Antidote No. 1, Oxazolidine, 3-(dichloroacetyl)-2,2-dimethyl-5-(2-furanyl)-], the “% Injury Corn” value (Corn; Antidote 1 0.07 + Herbicide 1 0.07 kg/Ha) is reported as 0%, the “% Injury Corn” value (Corn; Antidote 1 0.07 + Herbicide 4 0.07 kg/Ha) is reported as 0% and the “% Injury Corn” value (Corn; Antidote 1 0.07 + Herbicide 5 0.07 kg/Ha) is reported as 20%. For the same compound, the “% Injury Corn” value (Corn; Antidote 1 0.07 + Herbicide 6 0.07 kg/Ha) was 0%, the “% Injury Corn” value (Corn; Antidote 1 0.14 + Herbicide 1 0.14 kg/Ha) was 10% and the “% Injury Corn” value (Corn; Antidote 1 0.14 + Herbicide 4 0.14 kg/Ha) was 8%. For the same compound, the “% Injury Corn” value (Corn; Antidote 1 0.14 + Herbicide 5 0.14 kg/Ha) was 55%, the “% Injury Corn” value (Corn; Antidote 1 0.14 + Herbicide 6 0.14 kg/Ha) was 3% and the “% Injury Corn” value (Corn; Insecticide 2 3.36 + Antidote 1 0.014 + Herbicide 1 0.14 kg/Ha) was 0%. The “% Injury Corn” value (Corn; Insecticide 2 3.36 + Antidote 1 0.07 + Herbicide 1 0.07 kg/Ha) was 0%, the “% Injury Corn” value (Corn; Insecticide 2 3.36 + Antidote 1 0.07 + Herbicide 4 0.07 kg/Ha) was 25% and the “% Injury Corn” value (Corn; Insecticide 2 3.36 + Antidote 1 0.07 + Herbicide 5 0.07 kg/Ha) was 95%. For the same compound, the “% Injury Corn” value (Corn; Insecticide 2 3.36 + Antidote 1 0.07 + Herbicide 6 0.07 kg/Ha) was 5%, the “% Injury Corn” value (Corn; Insecticide 2 3.36 + Antidote 1 0.14 + Herbicide 4 0.14 kg/Ha) was 88% and the “% Injury Corn” value (Corn; Insecticide 2 3.36 + Antidote 1 0.14 + Herbicide 5 0.14 kg/Ha) was 95%. The “% Injury Corn” value (Corn; Insecticide 2 3.36 + Antidote 1 0.14 + Herbicide 6 0.14 kg/Ha) was 63%, the “Percent Injury VELE” value ([1]; Antidote 1 0.14 + Herbicide 1 0.14 Kg/Ha) was 88% and the “Percent Injury VELE” value ([1]; Antidote 1 0.56 + Herbicide 1 0.56 Kg/Ha) was 92%. For the same compound, the “Percent Injury VELE” value ([1]; Antidote 1 2.24 + Herbicide 1 2.24 Kg/Ha) was 93%, the “Percent Injury VELE” value ([1]; Antidote 1 2.24 Kg/Ha alone) was 0% and the “% Injury VELE” value ([1]; Ex. 2: Antidote 1 0.14 + Herbicide 1 0.14 Kg/Ha) was 86%. The “% Injury VELE” value ([1]; Ex. 2: Antidote 1 0.42 + Herbicide 1 0.14 Kg/Ha) was 93%, the “% Injury VELE” value ([1]; Ex. 2: Antidote 1 0.56 + Herbicide 1 0.56 Kg/Ha) was 90% and the “% Injury VELE” value ([1]; Ex. 2: Antidote 1 1.68 + Herbicide 1 0.56 Kg/Ha) was 95%. The “% Injury VELE” value ([1]; Ex. 2: Insecticide 1 0.11 kg/305m + Antidote 1 0.14 + Herbicide 1 0.14 Kg/Ha) was 78%, the “% Injury VELE” value ([1]; Ex. 2: Insecticide 1 0.11 kg/305m + Antidote 1 0.42 + Herbicide 1 0.14 Kg/Ha) was 84% and the “% Injury VELE” value ([1]; Ex. 2: Insecticide 1 0.11 kg/305m + Antidote 1 0.56 + Herbicide 1 0.56 Kg/Ha) was 93%. For the same compound, the “% Injury VELE” value ([1]; Ex. 2: Insecticide 1 0.11 kg/305m + Antidote 1 1.68 + Herbicide 1 0.56 Kg/Ha) was 95%, the “% Injury VELE” value ([1]; Ex. 2: Insecticide 1 0.23 Kg/305m (ditto mark) + Antidote 1 0.22 + Herbicide 2 4.48 Kg/Ha (so in the source)) was 36% and 38% and the “% Injury VELE” value ([1]; Ex. 2: Insecticide 1 0.23 Kg/305m + Antidote 1 0.14 + Herbicide 1 0.14 Kg/Ha) was 83%. The “% Injury VELE” value ([1]; Ex. 2: Insecticide 1 0.23 Kg/305m + Antidote 1 0.22 + Herbicide 1 0.14 + Herbicide 2 4.48 Kg/Ha) was 98%, the “% Injury VELE” value ([1]; Ex. 2: Insecticide 1 0.23 Kg/305m + Antidote 1 0.42 + Herbicide 1 0.14 Kg/Ha) was 90% and the “% Injury VELE” value ([1]; Ex. 2: Insecticide 1 0.23 Kg/305m + Antidote 1 0.56 + Herbicide 1 0.56 Kg/Ha) was 95%. The “% Injury VELE” value ([1]; Ex. 2: Insecticide 1 0.23 Kg/305m + Antidote 1 1.68 + Herbicide 1 0.56 Kg/Ha) was 93%, the “% Injury VELE” value ([1]; Ex. 2: Insecticide 2 1.68 kg/Ha + Antidote 1 0.14 + Herbicide 1 0.14 Kg/Ha (so in the source)) was 91% and 84% and 79% and the “% Injury VELE” value ([1]; Ex. 2: Insecticide 2 1.68 kg/Ha + Antidote 1 0.56 + Herbicide 1 0.56 Kg/Ha (so in the source)) was 90% and 89% and 91%. For the same compound, the “% Injury VELE” value ([1]; Ex. 2: Insecticide 2 3.36 Kg/Ha + Antidote 1 0.14 + Herbicide 1 0.14 Kg/Ha (so in the source)) was 81% and 79% and 89%, the “% Injury VELE” value ([1]; Ex. 2: Insecticide 2 3.36 Kg/Ha + Antidote 1 0.22 + Herbicide 1 0.14 + Herbicide 2 4.48 Kg/Ha) was 83% and the “% Injury VELE” value ([1]; Ex. 2: Insecticide 2 3.36 Kg/Ha + Antidote 1 0.22 + Herbicide 2 4.48 Kg/Ha) was 11%. For the same compound, the “% Injury VELE” value ([1]; Ex. 2: Insecticide 2 3.36 Kg/Ha + Antidote 1 0.56 + Herbicide 1 0.56 Kg/Ha (so in the source)) was 95%, the “Percent Injury VELE” value ([1]; Insecticide 1 0.23 kg/305m + Antidote 1 0.14 + Herbicide 1 0.14 Kg/Ha) was 87% and the “Percent Injury VELE” value ([1]; Insecticide 1 0.23 kg/305m + Antidote 1 0.14 Kg/Ha, no herbicide) was 0%. The “Percent Injury VELE” value ([1]; Insecticide 1 0.23 kg/305m + Antidote 1 0.56 + Herbicide 1 0.56 Kg/Ha) was 90%, the “Percent Injury VELE” value ([1]; Insecticide 1 0.23 kg/305m + Antidote 1 0.56 Kg/Ha, no herbicide) was 0% and the “Percent Injury VELE” value ([1]; Insecticide 1 0.23 kg/305m + Antidote 1 2.24 + Herbicide 1 2.24 Kg/Ha) was 92%. For the same compound, the “Percent Injury VELE” value ([1]; Insecticide 1 0.23 kg/305m + Antidote 1 2.24 Kg/Ha, no herbicide) was 0%, the “Percent Injury VELE” value ([1]; Insecticide 1 (H2O) (crystals scattered in-furrow) + Antidote 1 2 + Herbicide 1 2 Kg/Ha) was 95% and the “Percent Injury VELE” value ([1]; Insecticide 1 (H2O) (crystals scattered in-furrow) + Antidote 1 2 Kg/Ha) was 0%. The “Percent Injury VELE” value ([1]; Insecticide 2 3.36 kg/ha + Antidote 1 0.14 + Herbicide 1 0.14 Kg/Ha) was 83%, the “Percent Injury VELE” value ([1]; Insecticide 2 3.36 kg/ha + Antidote 1 0.14 Kg/Ha, no herbicide) was 78% and the “Percent Injury VELE” value ([1]; Insecticide 2 3.36 kg/ha + Antidote 1 0.56 + Herbicide 1 0.56 Kg/Ha) was 92%. For the same compound, the “Percent Injury VELE” value ([1]; Insecticide 2 3.36 kg/ha + Antidote 1 0.56 Kg/Ha, no herbicide) was 33%, the “Percent Injury VELE” value ([1]; Insecticide 2 3.36 kg/ha + Antidote 1 2.24 + Herbicide 1 2.24 Kg/Ha) was 95% and the “Percent Injury VELE” value ([1]; Insecticide 2 3.36 kg/ha + Antidote 1 2.24 Kg/Ha, no herbicide) was 0%.
